This is an account of results in ChEMBL document CHEMBL3864140, “Melanogenesis inhibitory activity of a 7-O-9'-linked neolignan from Alpinia galanga fruit” (Bioorg Med Chem, 2016).

Data set [1] is described as follows: Downregulation of TRP2 expression in theophylline-stimulated mouse B16-4A5 cells assessed as ratio of TRP2 mRNA expression to beta-actin mRNA expression at 3 uM after 72 hrs by qRT-PCR analysis (reference value: […] +/- […]). It counts as functional, cell-based.
Data set [2] can be described thus: Antimelanogenic activity in theophylline-stimulated mouse B16-4A5 cells assessed as inhibition of melanogenesis after 72 hrs relative to control. It is filed as functional, cell-based.
The nature of data set [3]: Downregulation of tyrosinase expression in theophylline-stimulated mouse B16-4A5 cells assessed as ratio of tyrosinase mRNA expression to beta-actin mRNA expression at 3 uM after 72 hrs by qRT-PCR analysis (reference value: […] +/- […]). It is filed as functional, cell-based.
The nature of data set [4]: Cytotoxicity against theophylline-stimulated mouse B16-4A5 cells assessed as cell viability at 0.3 uM after 72 hrs by MTT assay relative to control. It counts as toxicity. Particulars: theophylline-stimulated B16-4A5 cells, read-out: Activity. (Formazan colour is commonly taken as a measure of viable cells.)
Data set [5] is described as follows: Downregulation of TRP2 expression in theophylline-stimulated mouse B16-4A5 cells assessed as ratio of TRP2 mRNA expression to beta-actin mRNA expression at 10 uM after 72 hrs by qRT-PCR analysis (reference value: […] +/- […]). It is filed as functional, cell-based.
Data set [6] can be described thus: Downregulation of TRP1 expression in theophylline-stimulated mouse B16-4A5 cells assessed as ratio of TRP1 mRNA expression to beta-actin mRNA expression at 10 uM after 72 hrs by qRT-PCR analysis (reference value: […] +/- […]). It is filed as functional, cell-based. (In general: In qPCR the cycle at which signal appears reflects the starting amount.)
Data set [7] in a line: Antimelanogenic activity in theophylline-stimulated mouse B16-4A5 cells assessed as inhibition of melanogenesis at 1 uM after 72 hrs relative to control. It is filed as functional. Particulars: B16-4A5, 72 h.
Data set [8] is described as follows: Downregulation of TRP1 expression in theophylline-stimulated mouse B16-4A5 cells assessed as ratio of TRP1 mRNA expression to beta-actin mRNA expression at 3 uM after 72 hrs by qRT-PCR analysis (reference value: […] +/- […]). It counts as functional, cell-based.
Data set [9] can be described thus: Antimelanogenic activity in theophylline-stimulated mouse B16-4A5 cells assessed as inhibition of melanogenesis at 3 uM after 72 hrs relative to control. It is filed as functional. Particulars: B16-4A5, 72 h.
A short description of data set [10]: Cytotoxicity against theophylline-stimulated mouse B16-4A5 cells assessed as cell viability at 10 uM after 72 hrs by MTT assay relative to control. It is filed as toxicity. Particulars: theophylline-stimulated B16-4A5 cells, read-out: Activity.
Data set [11] can be described thus: Antimelanogenic activity in theophylline-stimulated mouse B16-4A5 cells assessed as inhibition of melanogenesis at 10 uM after 72 hrs relative to control. It counts as functional. To be noted: B16-4A5, 72 h.
The nature of data set [12]: Cytotoxicity against theophylline-stimulated mouse B16-4A5 cells assessed as cell viability at 1 uM after 72 hrs by MTT assay relative to control. It is filed as toxicity. To be noted: theophylline-stimulated B16-4A5 cells, read-out: Activity.
A short description of data set [13]: Antimelanogenic activity in theophylline-stimulated mouse B16-4A5 cells assessed as inhibition of melanogenesis at 0.3 uM after 72 hrs relative to control. It is filed as functional. Particulars: B16-4A5, 72 h.
A short description of data set [14]: Cytotoxicity against theophylline-stimulated mouse B16-4A5 cells assessed as cell viability at 3 uM after 72 hrs by MTT assay relative to control. It counts as toxicity. To be noted: theophylline-stimulated B16-4A5 cells, read-out: Activity.
The nature of data set [15]: Downregulation of tyrosinase expression in theophylline-stimulated mouse B16-4A5 cells assessed as ratio of tyrosinase mRNA expression to beta-actin mRNA expression at 10 uM after 72 hrs by qRT-PCR analysis (reference value: […] +/- […]). It counts as functional, cell-based.
The nature of data set [16]: Potency index, ratio of arbutin IC50 to compound IC50 for antimelanogenic activity in mouse B16-4A5 cells. It counts as functional.
The nature of data set [17]: Cytotoxicity against theophylline-stimulated mouse B16-4A5 cells assessed as cell viability at 100 uM after 72 hrs by MTT assay relative to control. It counts as toxicity. Particulars: theophylline-stimulated B16-4A5 cells, read-out: Activity.
A short description of data set [18]: Antimelanogenic activity in theophylline-stimulated mouse B16-4A5 cells assessed as inhibition of melanogenesis at 1000 uM after 72 hrs relative to control. It is filed as functional. To be noted: B16-4A5, 72 h.
Data set [19] is described as follows: cells. Particulars: Mus musculus, B16-4A5, 72 h, read-out: INH.
Description: Antimelanogenic activity in theophylline-stimulated mouse B16-4A5 cells assessed as inhibition of melanogenesis at 30 uM after 72 hrs relative to control
Data set [20] can be described thus: Cytotoxicity against theophylline-stimulated mouse B16-4A5 cells assessed as cell viability at 300 uM after 72 hrs by MTT assay relative to control. It is filed as toxicity. To be noted: theophylline-stimulated B16-4A5 cells, read-out: Activity.
A short description of data set [21]: cells. Particulars: Mus musculus, B16-4A5, 72 h, read-out: INH. The source holds these as a separate data set.
Data set [22] is described as follows: Cytotoxicity against theophylline-stimulated mouse B16-4A5 cells assessed as cell viability at 1000 uM after 72 hrs by MTT assay relative to control. Particulars: theophylline-stimulated B16-4A5 cells, read-out: Activity. It is filed as toxicity.
The nature of data set [23]: Cytotoxicity against theophylline-stimulated mouse B16-4A5 cells assessed as cell viability at 30 uM after 72 hrs by MTT assay relative to control. To be noted: theophylline-stimulated B16-4A5 cells, read-out: Activity. It is filed as toxicity.
The nature of data set [24]: Antimelanogenic activity in theophylline-stimulated mouse B16-4A5 cells assessed as inhibition of melanogenesis at 300 uM after 72 hrs relative to control. It counts as functional. Particulars: B16-4A5, 72 h.

As a reminder, the IC50 is the point on the concentration scale where inhibition reaches its midpoint. Take `C=CC(OC/C=C/c1ccc(OC(C)=O)cc1)c1ccc(OC(C)=O)cc1` (racemic): the Ratio is 0.86 in [1]; 0.77 in [3]; 0.81 in data set [5]; 0.81 in [6]; 0.79 in data set [8]; 0.6 in [15]. Moreover, the IC50 in data set [2] was found to be 2200 nM. The viability at 72 h, 0.3 µM in data set [4] was found to be 105%. Besides, the inhibition at 1 µM in data set [7] stood at 32.4%. In data set [9], the inhibition at 3 µM came out at 57.2%. For the same compound, in data set [10], the viability at 72 h, 10 µM came out at 12.9%. The inhibition at 10 µM in data set [11] was -5.5%. For the same compound, in [12], the viability at 72 h, 1 µM was 99.3%. Also, in data set [13], the inhibition at 0.3 µM is 10.3%. For the same compound, the viability at 72 h, 3 µM in [14] is 85.2%.
With `C=C[C@H](OC/C=C/c1ccc(OC(C)=O)cc1)c1ccc(OC(C)=O)cc1`, the Ratio in data set [1] is 0.72; in data set [3] it was 0.87; in data set [5], 1.43; in data set [6] it was 0.99; in data set [8], 0.76; in data set [15], 0.53. Besides, in data set [2], the IC50 amounted to 2500 nM. For the same compound, the viability at 72 h, 0.3 µM in data set [4] is 98.1%. For the same compound, the inhibition at 1 µM in [7] stood at 10%. For the same compound, the inhibition at 3 µM in data set [9] turned out to be 58.5%. In addition, the “Ratio IC50” value in data set [16] is reported as >25 - 70. Also, in data set [10], the viability at 72 h, 10 µM was determined as 26.5%. Further, the inhibition at 10 µM in data set [11] came to 117%. In addition, the viability at 72 h, 1 µM in data set [12] stood at 82.9%. The inhibition at 0.3 µM in data set [13] was -5.9%. In addition, the viability at 72 h, 3 µM in data set [14] stood at 68.5%.
For the compound `C=C[C@@H](OC/C=C/c1ccc(OC(C)=O)cc1)c1ccc(OC(C)=O)cc1`, the Ratio in data set [1] turned out to be 1.67; in data set [3], 0.84; in [5], 0.88; in data set [6], 0.94; in [8] it was 0.92; in data set [15], 0.56. Further, the IC50 in data set [2] is 1900 nM. For the same compound, in [4], the viability at 72 h, 0.3 µM stood at 107%. For the same compound, the inhibition at 1 µM in data set [7] turned out to be 31.8%. Moreover, in [9], the inhibition at 3 µM stood at 71.4%. Also, the viability at 72 h, 10 µM in data set [10] worked out at 29.7%. In addition, in [11], the inhibition at 10 µM worked out at 137%. The viability at 72 h, 1 µM in data set [12] worked out at 102%. In addition, the inhibition at 0.3 µM in data set [13] is 10.8%. For the same compound, the viability at 72 h, 3 µM in data set [14] was determined as 81.5%.
As to `OC[C@H]1O[C@@H](Oc2ccc(O)cc2)[C@H](O)[C@@H](O)[C@@H]1O` [ARBUTIN], the viability at 72 h, 100 µM in data set [17] worked out at 78.1%. Further, the inhibition at 1000 µM in [18] worked out at 83.7%. Besides, in “cells [19]”, the inhibition at 30 µM stood at 20.4%. Besides, the viability at 72 h, 300 µM in data set [20] turned out to be 79.8%. Also, in “cells [21]”, the inhibition at 100 µM turned out to be 38.1%. Moreover, the viability at 72 h, 1000 µM in [22] stood at 53.1%. Further, in data set [23], the viability at 72 h, 30 µM came to 82.4%. For the same compound, the inhibition at 300 µM in data set [24] is 61.5%.
Turning to `C=C[C@H](OC(C)=O)c1ccc(OC(C)=O)c(OC)c1`, the Ratio in data set [1] turned out to be 0.89; in data set [3] it was 1.1; in data set [5], 0.88; in [6], 0.29; in data set [8], 0.52; in data set [15] it was 0.8. Moreover, the IC50 in data set [2] is 5600 nM. Further, the viability at 72 h, 0.3 µM in data set [4] came out at 92%. Moreover, in data set [7], the inhibition at 1 µM was 15.3%. For the same compound, the inhibition at 3 µM in [9] amounted to 16.8%. Also, in data set [16], the “Ratio IC50” value is listed as >25 - 70. In addition, in data set [10], the viability at 72 h, 10 µM worked out at 42.3%. In addition, the inhibition at 10 µM in [11] worked out at 84.4%. Further, the viability at 72 h, 1 µM in data set [12] is 105%. Moreover, in [13], the inhibition at 0.3 µM was -4.9%. Also, the viability at 72 h, 3 µM in [14] was found to be 101%.
On to `C=C[C@H](OC(C)=O)c1ccc(OC(C)=O)cc1` [1'-ACETOXYCHAVICOL ACETATE], for which the Ratio in data set [1] stood at 1.08; in [3], 1; in data set [5], 0.34; in [6], 0.5; in data set [8], 0.86; in data set [15], 0.49. Moreover, the IC50 in data set [2] amounted to 5000 nM. The viability at 72 h, 0.3 µM in data set [4] came out at 103%. Also, the inhibition at 1 µM in [7] was 6.2%. Moreover, in [9], the inhibition at 3 µM turned out to be 29.8%. The “Ratio IC50” value in data set [16] is >25 - 70. For the same compound, in data set [10], the viability at 72 h, 10 µM was determined as 99.9%. The inhibition at 10 µM in [11] worked out at 73.1%. Besides, the viability at 72 h, 1 µM in data set [12] was 102%. Further, the inhibition at 0.3 µM in data set [13] came to 9.3%. Besides, in data set [14], the viability at 72 h, 3 µM stood at 99.9%.
